Patent US7745483B2, “2-Halofuryl-thienyl-3-carboxamides” (Bayer CropScience AG, priority 2004, dated 2010)

Test system: not listed separately
Assay: logP determination by HPLC on a reverse-phase column (EEC Directive 79/831 Annex V.A8)
Assay type: physicochemical
Conditions: pH 2.3, reverse-phase column (C 18), 43° C.
Protocol: The logP values given were determined in accordance with EEC Directive 79/831 Annex V.A8 by HPLC (High Performance Liquid Chromatography) on a reverse-phase column (C 18). Temperature: 43° C. Mobile phases for the determination in the acidic range (pH 2.3): 0.1% aqueous phosphoric acid, acetonitrile; linear gradient from 10% acetonitrile to 90% acetonitrile. Calibration was carried out using unbranched alkan-2-ones (having 3 to 16 carbon atoms) with known logP values (determination of logP values by retention times using linear interpolation between two successive alkanones).

| logP | SMILES |
| --- | --- |
| 3.79 | CON=Cc1ccc(-c2ccccc2NC(=O)c2ccsc2I)cc1F [Example 40] |
| 4.17 | CC(C)CC(C)c1cc(F)ccc1NC(=O)c1ccsc1I (stereo not drawn) [Example 41] |
| 4.44 | CC(C)(C)CCc1sccc1NC(=O)c1ccsc1I [Example 42] |
| 4.22 | CC(C)CC(C)c1sccc1NC(=O)c1ccsc1I (stereo not drawn) [Example 43] |
| 4.30 | CC(C)(C)CCc1cc(F)ccc1NC(=O)c1ccsc1Br [Example 44] |
| 4.30 | CC(C)(C)CCc1ccccc1NC(=O)c1ccsc1Br [Example 45] |

Test system: Venturia inaequalis
Assay: Venturia test (apple)/protective
Assay type: in vivo
Conditions: 240 h, protective, application rate 100 g/ha, evaluation 10 days after inoculation, read-out: Efficacy in %
Protocol: [table] To produce a suitable preparation of active compound, one part by weight of active compound is mixed with the stated amount of solvent and emulsifier, and the concentrate is diluted with water to the desired concentration. To test for protective activity, young plants are sprayed with the preparation of active compound at the stated application rate. After the spray coating has dried on, the plants are inoculated with an aqueous conidia suspension of the apple scab pathogen Venturia inaequalis and then remain in an incubation cabin at about 20° C. and 100% relative atmospheric humidity for 1 day. The plants are then placed in a greenhouse at about 21° C. and a relative atmospheric humidity of about 90%. Evaluation is carried out 10 days after the inoculation. 0% means an efficacy which corresponds to that of the control, whereas an efficacy of 100% means that no infection is observed.

| SMILES | pest or weed control at 100 g/ha |
| --- | --- |
| CC(C)CC(C)c1ccccc1NC(=O)c1ccsc1I (stereo not drawn) [drawing 185] | 100% |
| CC(CC(C)(C)C)c1ccccc1NC(=O)c1ccoc1I (stereo not drawn) [drawing 186] | 94% |
| CC(CC(C)(C)C)c1ccccc1NC(=O)c1ccsc1I (stereo not drawn) [drawing 187] | 100% |
| C[Si](C)(C)CCc1ccccc1NC(=O)c1ccsc1I [drawing 188] | 100% |
| O=C(Nc1ccccc1-c1ccc(C(F)(F)F)cc1Cl)c1ccsc1I [drawing 189] | 97% |
| O=C(Nc1ccncc1-c1ccc(Cl)c(Cl)c1)c1ccsc1I [drawing 190] | 98% |
| O=C(Nc1ccccc1-c1ccc(Br)cc1Cl)c1ccsc1I [drawing 191] | 100% |
| O=C(Nc1ccccc1-c1ccc(Br)c(F)c1)c1ccsc1I [drawing 192] | 100% |
| O=C(Nc1ccccc1-c1ccc(Br)c(Cl)c1)c1ccsc1I [drawing 193] | 100% |
| O=C(Nc1ccccc1-c1cccc(Cl)c1Cl)c1ccsc1I [drawing 194] | 98% |
| O=C(Nc1ccccc1-c1cccc(Cl)c1F)c1ccsc1I [drawing 195] | 89% |
| O=C(Nc1ccc(F)cc1-c1cccc(Cl)c1F)c1ccsc1I [drawing 196] | 100% |
| CC(C)(C)CCc1cc(F)ccc1NC(=O)c1ccsc1I [drawing 197] | 100% |
| O=C(Nc1ccccc1-c1ccc(Cl)cc1)c1ccoc1I [drawing 198] | 100% |
| O=C(Nc1ccccc1-c1ccc(Br)cc1)c1ccoc1I [drawing 199] | 100% |
| O=C(Nc1ccccc1-c1ccc(Cl)c(Cl)c1)c1ccoc1I [drawing 200] | 99% |
| O=C(Nc1ccccc1-c1ccc(Cl)c(F)c1)c1ccoc1I [drawing 201] | 100% |

| SMILES | pest or weed control at 100 g/ha |
| --- | --- |
| O=C(Nc1ccccc1-c1ccc(Cl)cc1)c1ccsc1I [drawing 202] | 100% |
| O=C(Nc1ccccc1-c1ccc(Br)cc1)c1ccsc1I [drawing 203] | 91% |
| O=C(Nc1ccccc1-c1ccc(Cl)c(Cl)c1)c1ccsc1I [drawing 204] | 100% |
| O=C(Nc1ccccc1-c1ccc(Cl)c(F)c1)c1ccsc1I [drawing 205] | 100% |
| CC(C[Si](C)(C)C)c1ccccc1NC(=O)c1ccoc1I (stereo not drawn) [drawing 206] | 99% |
| CC(C[Si](C)(C)C)c1ccccc1NC(=O)c1ccsc1I (stereo not drawn) [drawing 207] | 100% |
| O=C(Nc1ccccc1-c1ccc(C(F)(F)F)cc1)c1ccsc1I [drawing 208] | 99% |
| O=C(Nc1ccc(F)cc1-c1ccc(Cl)c(Cl)c1)c1ccsc1I [drawing 209] | 100% |
| Cc1ccc(-c2ccccc2NC(=O)c2ccsc2I)cc1F [drawing 210] | 100% |
| CC1CC(C)(C)c2cccc(NC(=O)c3ccsc3I)c21 (stereo not drawn) [drawing 211] | 100% |
| CC(C)CC(C)c1cc(F)ccc1NC(=O)c1ccsc1I (stereo not drawn) [drawing 212] | 100% |
| CO/N=C/c1ccc(-c2ccccc2NC(=O)c2ccsc2I)cc1F [drawing 213] | 100% |
| CC(C)CC(C)c1sccc1NC(=O)c1ccsc1I (stereo not drawn) [drawing 214] | 100% |
| CC(C)CC(C)c1ccccc1NC(=O)c1ccsc1Br (stereo not drawn) [drawing 215] | 100% |
| CC(CC(C)(C)C)c1ccccc1NC(=O)c1ccsc1Br (stereo not drawn) [drawing 216] | 98% |
| O=C(Nc1ccccc1-c1ccc(Cl)cc1)c1ccsc1Br [drawing 217] | 100% |
| O=C(Nc1ccccc1-c1ccc(Cl)c(Cl)c1)c1ccsc1Br [drawing 218] | 100% |

Test system: Botrytis cinerea
Assay: Botrytis test (bean)/protective
Assay type: in vivo
Conditions: 48 h, protective, application rate 500 g/ha, evaluation 2 days after inoculation, read-out: Efficacy in %
Protocol: [table] To produce a suitable preparation of active compound, 1 part by weight of active compound was mixed with the stated amounts of solvent and emulsifier, and the concentrate was diluted with water to the desired concentration. To test for protective activity, young plants are sprayed with the preparation of active compound at the stated application rate. After the spray coating has dried on, 2 small pieces of agar colonized by Botrytis cinerea are placed onto each leaf. The inoculated plants are placed in a dark chamber at about 20° C. and 100% relative atmospheric humidity. The size of the infected areas on the leaves is evaluated 2 days after the inoculation. 0% means an efficacy which corresponds to that of the control, whereas an efficacy of 100% means that no infection is observed.

| SMILES | pest or weed control at 500 g/ha |
| --- | --- |
| CC(C)CC(C)c1ccccc1NC(=O)c1ccsc1I (stereo not drawn) [drawing 222] | 100% |
| CC(C)CC(C)c1ccccc1NC(=O)c1ccoc1I (stereo not drawn) [drawing 223] | 99% |
| CC(CC(C)(C)C)c1ccccc1NC(=O)c1ccoc1I (stereo not drawn) [drawing 224] | 100% |
| CC(CC(C)(C)C)c1ccccc1NC(=O)c1ccsc1I (stereo not drawn) [drawing 225] | 100% |
| C[Si](C)(C)CCc1ccccc1NC(=O)c1ccsc1I [drawing 226] | 100% |
| O=C(Nc1ccccc1-c1ccc(C(F)(F)F)cc1Cl)c1ccsc1I [drawing 227] | 100% |
| O=C(Nc1ccncc1-c1ccc(Cl)c(Cl)c1)c1ccsc1I [drawing 228] | 100% |
| O=C(Nc1ccccc1-c1ccc(Br)cc1Cl)c1ccsc1I [drawing 229] | 100% |
| O=C(Nc1ccccc1-c1ccc(Br)c(F)c1)c1ccsc1I [drawing 230] | 100% |
| O=C(Nc1ccccc1-c1ccc(Br)c(Cl)c1)c1ccsc1I [drawing 231] | 100% |
| O=C(Nc1ccccc1-c1cccc(Cl)c1Cl)c1ccsc1I [drawing 232] | 100% |
| O=C(Nc1ccccc1-c1cccc(Cl)c1F)c1ccsc1I [drawing 233] | 100% |
| O=C(Nc1ccc(F)cc1-c1cccc(Cl)c1F)c1ccsc1I [drawing 234] | 100% |
| CC(C)(C)CCc1cc(F)ccc1NC(=O)c1ccsc1I [drawing 235] | 100% |
| O=C(Nc1ccccc1-c1ccc(Cl)cc1)c1ccoc1I [drawing 236] | 100% |
| O=C(Nc1ccccc1-c1ccc(Br)cc1)c1ccoc1I [drawing 237] | 100% |
| O=C(Nc1ccccc1-c1ccc(Cl)c(Cl)c1)c1ccoc1I [drawing 238] | 100% |
| O=C(Nc1ccccc1-c1ccc(Cl)c(F)c1)c1ccoc1I [drawing 239] | 100% |
| O=C(Nc1ccccc1-c1ccc(Cl)cc1)c1ccsc1I [drawing 240] | 100% |

| SMILES | pest or weed control at 500 g/ha |
| --- | --- |
| O=C(Nc1ccccc1-c1ccc(Br)cc1)c1ccsc1I [drawing 241] | 100% |
| O=C(Nc1ccccc1-c1ccc(Cl)c(Cl)c1)c1ccsc1I [drawing 242] | 100% |
| O=C(Nc1ccccc1-c1ccc(Cl)c(F)c1)c1ccsc1I [drawing 243] | 100% |
| CC(C[Si](C)(C)C)c1ccccc1NC(=O)c1ccoc1I (stereo not drawn) [drawing 244] | 100% |
| CC(C[Si](C)(C)C)c1ccccc1NC(=O)c1ccsc1I (stereo not drawn) [drawing 245] | 100% |
| O=C(Nc1ccccc1-c1ccc(C(F)(F)F)cc1)c1ccsc1I [drawing 246] | 100% |
| O=C(Nc1ccc(F)cc1-c1ccc(Cl)c(Cl)c1)c1ccsc1I [drawing 247] | 100% |
| Cc1ccc(-c2ccccc2NC(=O)c2ccsc2I)cc1F [drawing 248] | 100% |
| CC1CC(C)(C)c2cccc(NC(=O)c3ccsc3I)c21 (stereo not drawn) [drawing 249] | 100% |
| CC(C)CC(C)c1cc(F)ccc1NC(=O)c1ccsc1I (stereo not drawn) [drawing 250] | 100% |
| CO/N=C/c1ccc(-c2ccccc2NC(=O)c2ccsc2I)cc1F [drawing 251] | 100% |
| CC(C)CC(C)c1sccc1NC(=O)c1ccsc1I (stereo not drawn) [drawing 252] | 100% |
| CC(C)CC(C)c1ccccc1NC(=O)c1ccsc1Br (stereo not drawn) [drawing 253] | 100% |
| CC(CC(C)(C)C)c1ccccc1NC(=O)c1ccsc1Br (stereo not drawn) [drawing 254] | 100% |
| O=C(Nc1ccccc1-c1ccc(Cl)cc1)c1ccsc1Br [drawing 255] | 100% |
| O=C(Nc1ccccc1-c1ccc(Cl)c(Cl)c1)c1ccsc1Br [drawing 256] | 100% |
| O=C(Nc1ccccc1-c1ccc(Cl)c(F)c1)c1ccsc1Br [drawing 257] | 100% |
| O=C(Nc1ccccc1-c1ccc(F)c(Cl)c1)c1ccsc1I [drawing 258] | 99% |
| C[Si](C)(C)CCc1sccc1NC(=O)c1ccsc1I [drawing 259] | 100% |
